Tested on: normal mice
Test: Comparative adjuvant activity on total anti-polysaccharide IgG levels in normal mice (Meningococcal A polysaccharide)
Type: in vivo
Details: parenteral, 14 and 28 day; for Total IgG level: IgG day 42, Mean ± SE
Protocol: The present adjuvant and extracts were administered with Meningococcal A polysaccharide on indicated days and IgG levels were estimated on day 42 to assess adjuvant activity.

Row | Compound | Activity (%) (percent immunomodulatory activity) (0.011 mg/kg) | Total IgG level (0.011 mg/kg) | Activity (%) (percent immunomodulatory activity) (0.0185 mg/kg) | Total IgG level (0.0185 mg/kg)
1 | CC1=C(CO)C(=O)O[C@@H]([C@@H](C)[C@H]2CC[C@H]3[C@@H]4C[C@H]5O[C@]56[C@@H](O)C=CC(=O)[C@]6(C)[C@H]4CC[C@]23C)C1 [Withaferin A] | 38.12% | 397.47 ± 93.71 |  | 
2 | CC1=C(C)C(=O)O[C@@H]([C@](C)(O)[C@H]2CC[C@H]3[C@@H]4[C@@H]5O[C@@H]5[C@@]5(O)CC=CC(=O)[C@]5(C)[C@H]4CC[C@]23C)C1 [Withanolide A] |  |  | 14.62% | 329.84 ± 86.82

Source: patent US8501186B2, “Adjuvant composition for vaccine” (Serum Institute of India, Ltd., priority 2009, dated 2013)
